Test results as given in ChEMBL document CHEMBL5649168, “Discovery of a selective catalytic p300/CBP inhibitor that targets lineage-specific tumours” (Nature, 2017).
Active and inactive are the calls of the source. The calls are words filed in the database; no cut-off is given here.

Tests used:
[1] = molecular target: Tyrosine-protein kinase ABL1 (Homo sapiens, UniProt P00519); test: Inhibition of Abl (unknown origin)
[2] = molecular target: RAC-alpha serine/threonine-protein kinase (Homo sapiens, UniProt P31749); test: Inhibition of Akt1 (unknown origin)
[3] = molecular target: Casein kinase I isoform alpha (Homo sapiens, UniProt P48729); test: Inhibition of Ck1alpha1 (unknown origin)
[4] = molecular target: Epithelial discoidin domain-containing receptor 1 (Homo sapiens, UniProt Q08345); test: Inhibition of DDR1 (unknown origin)
Sequence of Epithelial discoidin domain-containing receptor 1 (Q08345 whole entry, the tested form may be a part): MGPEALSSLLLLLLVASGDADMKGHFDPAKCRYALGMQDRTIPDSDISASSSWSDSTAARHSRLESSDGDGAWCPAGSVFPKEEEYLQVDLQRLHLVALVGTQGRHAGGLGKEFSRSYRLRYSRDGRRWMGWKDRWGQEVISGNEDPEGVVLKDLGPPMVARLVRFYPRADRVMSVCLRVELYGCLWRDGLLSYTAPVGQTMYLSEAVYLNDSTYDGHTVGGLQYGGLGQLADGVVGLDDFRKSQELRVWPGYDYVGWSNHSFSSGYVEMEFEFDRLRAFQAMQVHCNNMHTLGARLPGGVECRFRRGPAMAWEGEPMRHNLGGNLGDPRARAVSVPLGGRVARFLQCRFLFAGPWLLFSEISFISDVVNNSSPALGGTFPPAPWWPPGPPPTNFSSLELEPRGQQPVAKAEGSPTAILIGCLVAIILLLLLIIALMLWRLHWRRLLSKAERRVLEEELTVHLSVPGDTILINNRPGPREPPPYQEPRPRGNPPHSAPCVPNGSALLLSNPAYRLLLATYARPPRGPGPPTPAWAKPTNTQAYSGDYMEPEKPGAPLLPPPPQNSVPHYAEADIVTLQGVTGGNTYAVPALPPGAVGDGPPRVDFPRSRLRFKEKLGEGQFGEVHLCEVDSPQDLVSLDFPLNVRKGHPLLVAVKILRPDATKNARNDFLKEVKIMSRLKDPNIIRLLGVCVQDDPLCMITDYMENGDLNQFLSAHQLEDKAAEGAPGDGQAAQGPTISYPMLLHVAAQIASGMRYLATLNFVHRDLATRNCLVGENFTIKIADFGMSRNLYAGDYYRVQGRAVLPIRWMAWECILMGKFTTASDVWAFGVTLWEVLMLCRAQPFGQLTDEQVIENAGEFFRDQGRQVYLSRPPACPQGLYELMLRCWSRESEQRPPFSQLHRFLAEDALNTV

[5] = molecular target: G protein-coupled receptor kinase 5 (Homo sapiens, UniProt P34947); test: Inhibition of GRK5 (unknown origin)
Sequence of G protein-coupled receptor kinase 5 (P34947 whole entry): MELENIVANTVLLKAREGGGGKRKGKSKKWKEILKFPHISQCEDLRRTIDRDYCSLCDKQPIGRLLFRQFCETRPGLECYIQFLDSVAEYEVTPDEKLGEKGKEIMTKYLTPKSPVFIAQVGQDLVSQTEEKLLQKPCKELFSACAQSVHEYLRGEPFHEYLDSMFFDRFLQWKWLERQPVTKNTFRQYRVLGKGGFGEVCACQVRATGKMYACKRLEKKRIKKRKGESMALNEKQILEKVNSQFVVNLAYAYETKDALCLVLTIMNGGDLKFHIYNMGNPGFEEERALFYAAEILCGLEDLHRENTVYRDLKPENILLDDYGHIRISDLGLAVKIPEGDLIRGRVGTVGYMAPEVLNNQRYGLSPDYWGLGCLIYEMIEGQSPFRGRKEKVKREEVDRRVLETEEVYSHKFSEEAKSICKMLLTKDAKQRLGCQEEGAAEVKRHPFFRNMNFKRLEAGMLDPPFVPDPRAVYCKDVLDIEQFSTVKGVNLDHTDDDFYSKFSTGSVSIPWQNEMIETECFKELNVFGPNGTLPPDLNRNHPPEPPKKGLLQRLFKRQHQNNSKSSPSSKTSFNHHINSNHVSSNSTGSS

[6] = molecular target: Mitogen-activated protein kinase kinase kinase kinase 4 (Homo sapiens, UniProt O95819); test: Inhibition of MAP4K4 (unknown origin)
Sequence of Mitogen-activated protein kinase kinase kinase kinase 4 (O95819 whole entry): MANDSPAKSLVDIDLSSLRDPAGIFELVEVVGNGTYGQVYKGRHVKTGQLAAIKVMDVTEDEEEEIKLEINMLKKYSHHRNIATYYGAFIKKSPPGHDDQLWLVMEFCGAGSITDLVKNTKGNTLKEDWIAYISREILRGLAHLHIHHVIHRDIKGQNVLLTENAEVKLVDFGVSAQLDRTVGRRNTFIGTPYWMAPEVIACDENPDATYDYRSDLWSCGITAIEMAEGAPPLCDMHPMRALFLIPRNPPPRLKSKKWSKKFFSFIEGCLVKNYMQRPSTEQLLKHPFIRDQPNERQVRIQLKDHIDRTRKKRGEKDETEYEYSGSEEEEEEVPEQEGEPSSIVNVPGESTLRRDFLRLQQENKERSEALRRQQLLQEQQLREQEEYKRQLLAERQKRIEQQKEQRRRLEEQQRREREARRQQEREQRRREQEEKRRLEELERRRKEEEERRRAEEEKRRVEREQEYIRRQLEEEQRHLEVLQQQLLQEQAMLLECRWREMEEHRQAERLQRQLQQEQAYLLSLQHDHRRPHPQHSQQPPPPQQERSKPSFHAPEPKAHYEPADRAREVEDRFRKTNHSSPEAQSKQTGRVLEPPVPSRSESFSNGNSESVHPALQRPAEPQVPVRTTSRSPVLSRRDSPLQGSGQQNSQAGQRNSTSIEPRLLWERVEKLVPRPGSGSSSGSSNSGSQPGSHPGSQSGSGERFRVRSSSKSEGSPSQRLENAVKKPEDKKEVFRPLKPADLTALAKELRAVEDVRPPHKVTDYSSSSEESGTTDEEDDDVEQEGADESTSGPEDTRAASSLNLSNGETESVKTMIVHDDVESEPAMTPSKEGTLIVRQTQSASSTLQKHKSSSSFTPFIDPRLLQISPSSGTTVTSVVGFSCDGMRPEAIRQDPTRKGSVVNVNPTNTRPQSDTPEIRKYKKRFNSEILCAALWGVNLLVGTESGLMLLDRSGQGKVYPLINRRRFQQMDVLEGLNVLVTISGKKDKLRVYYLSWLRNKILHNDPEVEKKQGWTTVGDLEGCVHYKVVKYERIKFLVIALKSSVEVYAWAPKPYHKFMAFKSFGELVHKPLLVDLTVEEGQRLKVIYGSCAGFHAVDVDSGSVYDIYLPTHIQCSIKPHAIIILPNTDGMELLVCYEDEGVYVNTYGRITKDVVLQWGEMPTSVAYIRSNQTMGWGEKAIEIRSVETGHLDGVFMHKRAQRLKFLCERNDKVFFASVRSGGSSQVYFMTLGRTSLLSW

[7] = molecular target: Dual specificity mitogen-activated protein kinase kinase 2 (Homo sapiens, UniProt P36507); test: Inhibition of MEK2 (unknown origin)
[8] = molecular target: Mitogen-activated protein kinase 14 (Homo sapiens, UniProt Q16539); test: Inhibition of p38alpha (unknown origin)
Sequence of Mitogen-activated protein kinase 14 (Q16539 whole entry): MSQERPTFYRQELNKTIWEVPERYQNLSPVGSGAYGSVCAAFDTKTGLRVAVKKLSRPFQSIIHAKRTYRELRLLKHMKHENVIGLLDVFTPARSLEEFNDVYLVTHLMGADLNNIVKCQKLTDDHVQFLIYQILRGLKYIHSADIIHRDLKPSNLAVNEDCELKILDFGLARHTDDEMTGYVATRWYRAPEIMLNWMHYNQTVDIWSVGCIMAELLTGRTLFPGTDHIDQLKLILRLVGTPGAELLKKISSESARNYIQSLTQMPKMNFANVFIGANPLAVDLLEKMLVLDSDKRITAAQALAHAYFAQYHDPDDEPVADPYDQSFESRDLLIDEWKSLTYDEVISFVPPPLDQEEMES

[9] = molecular target: Rho-associated protein kinase 1 (Homo sapiens, UniProt Q13464); test: Inhibition of Rock1 (unknown origin)
[10] = molecular target: Serine/threonine-protein kinase Sgk1 (Homo sapiens, UniProt O00141); test: Inhibition of SGK1 (unknown origin)
Sequence of Serine/threonine-protein kinase Sgk1 (O00141 whole entry): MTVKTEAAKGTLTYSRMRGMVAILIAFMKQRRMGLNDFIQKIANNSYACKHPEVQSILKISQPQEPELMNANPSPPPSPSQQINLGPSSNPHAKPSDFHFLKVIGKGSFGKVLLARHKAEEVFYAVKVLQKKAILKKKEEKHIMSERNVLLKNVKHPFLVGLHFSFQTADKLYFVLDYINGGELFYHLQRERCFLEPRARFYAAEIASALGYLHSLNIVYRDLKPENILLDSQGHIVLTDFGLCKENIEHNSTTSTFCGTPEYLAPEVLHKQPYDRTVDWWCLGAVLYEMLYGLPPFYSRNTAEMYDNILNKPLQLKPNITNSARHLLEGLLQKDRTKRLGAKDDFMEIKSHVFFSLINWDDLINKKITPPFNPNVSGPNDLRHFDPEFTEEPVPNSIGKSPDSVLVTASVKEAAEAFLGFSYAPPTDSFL

[11] = molecular target: High affinity nerve growth factor receptor (Homo sapiens, UniProt P04629); test: Inhibition of TrkA (unknown origin)
[12] = molecular target: BDNF/NT-3 growth factors receptor (Homo sapiens, UniProt Q16620); test: Inhibition of TrkB (unknown origin)
[13] = molecular target: NT-3 growth factor receptor (Homo sapiens, UniProt Q16288); test: Inhibition of TrkC (unknown origin)
Sequence of NT-3 growth factor receptor (Q16288 whole entry): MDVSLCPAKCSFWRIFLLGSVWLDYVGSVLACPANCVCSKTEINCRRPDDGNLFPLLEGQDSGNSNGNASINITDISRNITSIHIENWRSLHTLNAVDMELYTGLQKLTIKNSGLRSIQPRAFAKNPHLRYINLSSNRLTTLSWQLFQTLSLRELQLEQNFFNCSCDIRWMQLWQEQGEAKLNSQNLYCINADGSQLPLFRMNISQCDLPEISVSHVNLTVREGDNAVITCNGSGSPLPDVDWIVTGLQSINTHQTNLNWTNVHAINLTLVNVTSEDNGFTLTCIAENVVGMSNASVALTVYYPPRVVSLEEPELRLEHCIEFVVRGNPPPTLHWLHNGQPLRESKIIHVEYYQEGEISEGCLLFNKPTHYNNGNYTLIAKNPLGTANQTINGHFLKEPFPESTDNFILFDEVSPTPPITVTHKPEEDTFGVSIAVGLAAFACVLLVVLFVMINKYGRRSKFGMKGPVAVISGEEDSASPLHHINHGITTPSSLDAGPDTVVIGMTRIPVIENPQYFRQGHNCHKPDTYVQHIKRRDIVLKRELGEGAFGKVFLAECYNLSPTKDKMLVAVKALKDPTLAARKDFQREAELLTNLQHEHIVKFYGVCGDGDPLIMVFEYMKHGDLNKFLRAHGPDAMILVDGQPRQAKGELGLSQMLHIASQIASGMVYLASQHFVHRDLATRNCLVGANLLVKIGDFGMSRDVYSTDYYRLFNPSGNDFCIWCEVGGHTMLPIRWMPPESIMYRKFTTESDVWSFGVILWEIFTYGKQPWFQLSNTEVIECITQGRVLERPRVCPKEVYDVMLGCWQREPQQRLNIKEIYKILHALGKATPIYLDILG

Wee1-like protein kinase = Wee1-like protein kinase (Homo sapiens, UniProt P30291); test: Inhibition of Wee1 (unknown origin)
[14] = molecular target: Death-associated protein kinase 3 (Homo sapiens, UniProt O43293); test: Inhibition of ZIPK (unknown origin)
Sequence of Death-associated protein kinase 3 (O43293 whole entry): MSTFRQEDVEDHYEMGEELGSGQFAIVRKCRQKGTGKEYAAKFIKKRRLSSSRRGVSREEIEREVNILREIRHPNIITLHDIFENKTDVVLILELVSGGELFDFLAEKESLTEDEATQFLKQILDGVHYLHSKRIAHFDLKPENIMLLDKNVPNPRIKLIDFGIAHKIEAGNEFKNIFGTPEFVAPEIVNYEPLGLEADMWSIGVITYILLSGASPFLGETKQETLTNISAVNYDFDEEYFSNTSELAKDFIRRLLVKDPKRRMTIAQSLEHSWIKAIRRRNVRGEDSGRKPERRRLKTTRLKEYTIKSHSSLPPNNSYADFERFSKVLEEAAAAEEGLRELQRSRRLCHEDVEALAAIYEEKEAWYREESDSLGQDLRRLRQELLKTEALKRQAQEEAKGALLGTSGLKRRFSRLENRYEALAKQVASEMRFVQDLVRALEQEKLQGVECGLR

Calu-6 = test: Antiproliferative activity against human Calu-6 cells assessed as inhibition of cell viability incubated for 3 to 5 days by Celltiter-Glo luminescent assay; assay type: functional, cell-based
LNCaP-Clone-FGC = test: Antiproliferative activity against human LNCaP-Clone-FGC cells assessed as inhibition of cell viability incubated for 3 to 5 days by Celltiter-Glo luminescent assay; assay type: functional, cell-based
SK-MEL-5 = test: Antiproliferative activity against human SK-MEL-5 cells assessed as inhibition of cell viability incubated for 3 to 5 days by Celltiter-Glo luminescent assay; assay type: functional, cell-based
Hs 294T = test: Antiproliferative activity against human Hs294T cells assessed as inhibition of cell viability incubated for 3 to 5 days by Celltiter-Glo luminescent assay; assay type: functional, cell-based
MDA-MB-157 = test: Antiproliferative activity against human MDA-MB-157 cells assessed as inhibition of cell viability incubated for 3 to 5 days by Celltiter-Glo luminescent assay; assay type: functional, cell-based
HCC1599 = test: Antiproliferative activity against human HCC1599 cells assessed as inhibition of cell viability incubated for 3 to 5 days by Celltiter-Glo luminescent assay; assay type: functional, cell-based
HCC1937 = test: Antiproliferative activity against human HCC1937 cells assessed as inhibition of cell viability incubated for 3 to 5 days by Celltiter-Glo luminescent assay; assay type: functional, cell-based
OCI-Ly18 = test: Antiproliferative activity against human OCI-Ly18 cells assessed as inhibition of cell viability incubated for 3 to 5 days by Celltiter-Glo luminescent assay; assay type: functional, cell-based
SUD4 = test: Antiproliferative activity against human SU-DHL-4 cells assessed as inhibition of cell viability incubated for 3 to 5 days by Celltiter-Glo luminescent assay; assay type: functional, cell-based
OCI-Ly1 = test: Antiproliferative activity against human OCI-Ly1 cells assessed as inhibition of cell viability incubated for 3 to 5 days by Celltiter-Glo luminescent assay; assay type: functional, cell-based
U-2940 = test: Antiproliferative activity against human U-2940 cells assessed as inhibition of cell viability incubated for 3 to 5 days by Celltiter-Glo luminescent assay; assay type: functional, cell-based
SET-2 = test: Antiproliferative activity against human SET2 cells assessed as inhibition of cell viability incubated for 3 to 5 days by Celltiter-Glo luminescent assay; assay type: functional, cell-based
EOL1 = test: Antiproliferative activity against human EOL-1 cells assessed as inhibition of cell viability incubated for 3 to 5 days by Celltiter-Glo luminescent assay; assay type: functional, cell-based
KARPAS-299 = test: Antiproliferative activity against human KARPAS-299 cells assessed as inhibition of cell viability incubated for 3 to 5 days by Celltiter-Glo luminescent assay; assay type: functional, cell-based
[15] = Tmax in CB17 SCID mouse xenografted with LuCaP-77 CR cell at 200 mg/kg, ip administered for 7 days; assay type: ADME, organism-based; conditions: in vivo, time 7 day
[16] = Cmax in CB17 SCID mouse xenografted with LuCaP-77 CR cell at 50 mg/kg, ip administered for 7 days; assay type: ADME, organism-based; conditions: in vivo, time 7 day
LuCaP-77 CR cell [17] = conditions: Homo sapiens, dose 100.0 mg/kg, time 7.0 day
LuCaP-77 CR cell [18] = conditions: Homo sapiens, dose 100.0 mg/kg, time 7.0 day; remark: listed apart in the source

## CNC(=O)Nc1ccc2c(c1)CC[C@@]21OC(=O)N(CC(=O)N(Cc2ccc(F)cc2)[C@@H](C)C(F)(F)F)C1=O [A-485]
[1]
  IC50: > 10 µM
[2]
  IC50: > 10 µM
[3]
  IC50: > 10 µM
[4]
  IC50: > 10 µM
[5]
  IC50: > 10 µM
[6]
  IC50: > 10 µM
[7]
  IC50: > 10 µM
[8]
  IC50: > 10 µM
[9]
  IC50: > 10 µM
[10]
  IC50: > 10 µM
[11]
  IC50: > 10 µM
[12]
  IC50: > 10 µM
[13]
  IC50: > 10 µM
Wee1-like protein kinase
  IC50: > 10 µM
[14]
  IC50: > 10 µM
Calu-6
  EC50: 8.57 µM
LNCaP-Clone-FGC
  EC50: 0.26 µM
SK-MEL-5
  EC50: 0.91 µM
Hs 294T
  EC50: 9 µM
MDA-MB-157
  EC50: 4.59 µM
HCC1599
  EC50: 4.85 µM
HCC1937
  EC50: > 10 µM
OCI-Ly18
  EC50: 0.32 µM
SUD4
  EC50: 0.72 µM
OCI-Ly1
  EC50: 0.94 µM
U-2940
  EC50: 1.33 µM
SET-2
  EC50: 2.01 µM
EOL1
  EC50: > 10 µM
KARPAS-299
  EC50: > 10 µM
[15]
  Tmax: 6 h
[16]
  Cmax: 14700 ng/mL
LuCaP-77 CR cell [17]
  inhibition: Active
LuCaP-77 CR cell [18]
  inhibition: inactive
